# According to doi:10.1101/2024.07.26.605352v1, “In-vitro Metabolite Identification for MEDI7219, an Oral GLP-1 Peptide, using LC-MS/MS with CID and EAD Fragmentation” (bioRxiv, 2024):
# Tests used:
# [1] = tested on: Pancreatin from porcine pancreas; assay: In vitro incubation of MEDI7219 with pancreatin in PBS, LC-MS/MS metabolite identification and relative quantification; assay type: in vitro ADME; conditions: for Time at which fractional abundance peaked: pancreatin 3 mg/ml in PBS, 37 °C, sampling 0.5-6 h
# Description: MEDI7219 solution (10 µg/ml) was incubated with pancreatin (3 mg/ml) in pre-warmed PBS buffer at 37 °C for 0.5 h, 1 h, 2 h, 4 h and 6 h. A negative control sample was prepared as pancreatin in PBS buffer without MEDI7219 spiked in. A time zero sample was prepared as MEDI7219 in PBS without pancreatin. At each time point, 100 µl was sampled and quenched with 200 µl of acetonitrile. The quenched solution was centrifuged at 6000 g for 10 min. Supernatant was diluted 5-fold in mobile phase A (0.1 % formic acid in water) and 40 µl was injected to LC-MS/MS. Same LC-MS system was used here as structural characterization experiment. A longer LC gradient was applied where 20 % B was increased to 60 % B within 8 min.
# For MS method, DDA (data dependent acquisition) experiment was used where ions in range of 800-1250 Da were selected for MS/MS. Same key settings for CID and EAD established in the structural characterization experiment described above were applied in MS method here.
# Data were analyzed using Molecule Profiler beta version 1.3.2 (MP, SCIEX) beta version. Raw data from incubation at each time point was analyzed against the pancreatin blank sample in the MP software. […] Amino acid sequence for MEDI7219 was entered as a processing parameter. Non-natural amino acids including α-methyl-L-alanine, α-methyl-L-phenylalanine, α-methyl-L-serine, α-methyl-L-lysine, as well as side-chain lipid on lysine (C35H63N5O11) were added as custom elements by providing molecular formula in the software. Peptide method was used to match all peptide fragment peaks with full lipid side chain. Both MS1 and MS2 were used for peak finding based on mass tolerance of 15 ppm. For MS parameters, charge states 2-5 were included in the search. For MS/MS parameters, theoretical b, y, c’, z· as well as y|a and y|b internal fragment ions were searched with mass tolerance of 15 ppm. Default Biologics biotransformation set was used in the processing method. For quantification, all isotope peaks as part of a cluster and multiple charge states of the same peptide were summed for peak area. Results from individual timepoints were consolidated in Correlation analysis with 0.1 min retention time (RT) tolerance and 15 ppm m/z tolerance to yield the final list of metabolites and peak areas from all samples.
# Pancreatin was chosen for the in vitro evaluation because the site of maximal gastrointestinal absorption for MEDI7219 oral peptide was small intestine and proximal colon ([Pechenov et al., 2021]). […]
# For relative quantification, after correlation analysis in MP software and exporting XIC peak areas, we calculated fractional abundance of each metabolite over the incubation period (Figure 4). […]
# [2] = tested on: pancreatin; conditions: result in words; ref Pechenov et al., 2021; cited from earlier work
# Description: Systematic multi-disciplinary approach to engineering led to rational selection of the clinical lead, MEDI7219, a GLP-1 peptide with bis-lipidation and 12 amino acid substitutions and 5 α- methyl modifications ([Pechenov et al., 2021]). […] This measurement was done using HPLC with MEDI7219 detection by UV absorption at 210 nm. In this study, we identified key metabolites from MEDI7219 ... || For relative quantification, after correlation analysis in MP software and exporting XIC peak areas, we calculated fractional abundance of each metabolite over the incubation period (Figure 4). This was taken as a percent of XIC peak area of each metabolite over total peak area of all metabolites at a given timepoint (Table S2). Parent peptide decreased quickly in this experiment compared to the 60 % remained intact after 2 h in previous publication ([Pechenov et al., 2021]). The enzyme to substrate ratio was higher in this study compared to Pechenov et al. as the assay condition was optimized ...
# [3] = result in words; ref Pechenov et al., 2021; cited from earlier work
# Description: Semaglutide was the first approved oral GLP-1 receptor agonist ([Mahapatra et al., 2022]) and it incorporated peptide engineering approaches such as unnatural amino acid substitution to protect proteolytic sites, and lipidation to promote plasma protein binding to reduce renal clearance.
substance,measurement,setting,value
"HαAEGSαFTSDVαSSsidechainKLEGEAAαKEαFIAsidechainK VVEGG [MEDI7219, orally-bioavailable GLP-1 peptide with bis-lipidation, 12 amino acid substitutions and 5 α-methyl modifications; clinical candidate]",Parent peptide in metabolite chromatograms over pancreatin incubation,"[1]; summed XIC chromatograms, 0-6 h, CID data, result in words","still present at 0.5 h although no longer the prominent species, and it decreased significantly after 2 h"
same,Number of distinct cleavage sites,[1]; the 13 metabolites mapped on the MEDI7219 structure,8
same,Proteolytic stability compared with wild type or semaglutide,[2],proteolytically more stable than the wild type or semaglutide
"HαAEGSαFTSDVαSSsidechainK [Metabolite M13, metabolite of MEDI7219 identified after incubation with pancreatin]",Time at which fractional abundance peaked,[1],0.5 h
semaglutide,Degradation in GI tract,[3],rapidly degraded in GI tract
"HαAEGSαFTSDVαSSsidechainKLEGEAAαKEαFIAsidechainK [Metabolite M2, metabolite of MEDI7219 identified after incubation with pancreatin]",Time at which fractional abundance peaked,[1],0.5 h
